Experimental data from patent US20130196050A1, “SALTY TASTE ENHANCER” (AJINOMOTO CO., INC., priority 2010, published 2013).

Molecular target: T1, Human ENaC δ, β and γ subunit (Homo sapiens, UniProt P51168+P51170+P51172)
T1 construct: expressed in transfected cells; host or cells: Xenopus laevis (African clawed frog) oocytes injected with cRNA
T1 sequence (P51172 1-638 isoform P51172-1): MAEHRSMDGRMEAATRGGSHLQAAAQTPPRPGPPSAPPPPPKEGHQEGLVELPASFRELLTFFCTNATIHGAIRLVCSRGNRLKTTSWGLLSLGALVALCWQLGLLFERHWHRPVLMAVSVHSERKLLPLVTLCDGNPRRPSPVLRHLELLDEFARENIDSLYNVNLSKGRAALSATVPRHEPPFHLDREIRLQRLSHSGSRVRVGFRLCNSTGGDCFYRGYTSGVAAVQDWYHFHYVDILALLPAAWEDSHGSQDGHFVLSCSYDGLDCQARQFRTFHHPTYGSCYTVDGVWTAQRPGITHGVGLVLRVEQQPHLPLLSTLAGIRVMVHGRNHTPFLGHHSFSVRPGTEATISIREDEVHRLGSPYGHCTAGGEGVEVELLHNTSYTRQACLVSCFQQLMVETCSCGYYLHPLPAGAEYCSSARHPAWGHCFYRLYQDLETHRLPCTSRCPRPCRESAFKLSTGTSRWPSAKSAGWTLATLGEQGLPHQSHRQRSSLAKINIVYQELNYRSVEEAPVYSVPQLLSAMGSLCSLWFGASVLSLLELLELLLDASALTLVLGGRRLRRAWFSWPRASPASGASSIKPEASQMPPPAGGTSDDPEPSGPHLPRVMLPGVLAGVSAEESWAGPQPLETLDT
T1 sequence (P51168 1-640): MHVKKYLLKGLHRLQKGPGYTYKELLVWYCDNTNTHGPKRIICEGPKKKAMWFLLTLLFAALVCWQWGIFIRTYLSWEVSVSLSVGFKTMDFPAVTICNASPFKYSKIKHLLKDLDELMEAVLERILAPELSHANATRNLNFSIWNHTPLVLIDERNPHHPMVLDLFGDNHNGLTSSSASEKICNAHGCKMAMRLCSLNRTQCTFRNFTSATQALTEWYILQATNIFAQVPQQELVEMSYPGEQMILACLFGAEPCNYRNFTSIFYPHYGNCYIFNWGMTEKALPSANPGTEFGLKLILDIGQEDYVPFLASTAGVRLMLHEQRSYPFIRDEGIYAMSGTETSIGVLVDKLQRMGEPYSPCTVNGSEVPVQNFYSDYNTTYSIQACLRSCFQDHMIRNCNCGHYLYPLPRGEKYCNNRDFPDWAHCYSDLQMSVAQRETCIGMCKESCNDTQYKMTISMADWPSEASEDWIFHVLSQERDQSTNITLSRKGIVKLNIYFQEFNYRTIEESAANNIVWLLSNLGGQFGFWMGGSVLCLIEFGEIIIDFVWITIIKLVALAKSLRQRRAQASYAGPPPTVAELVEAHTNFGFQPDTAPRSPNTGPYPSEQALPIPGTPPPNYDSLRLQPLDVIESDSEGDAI
T1 sequence (P51170 1-649): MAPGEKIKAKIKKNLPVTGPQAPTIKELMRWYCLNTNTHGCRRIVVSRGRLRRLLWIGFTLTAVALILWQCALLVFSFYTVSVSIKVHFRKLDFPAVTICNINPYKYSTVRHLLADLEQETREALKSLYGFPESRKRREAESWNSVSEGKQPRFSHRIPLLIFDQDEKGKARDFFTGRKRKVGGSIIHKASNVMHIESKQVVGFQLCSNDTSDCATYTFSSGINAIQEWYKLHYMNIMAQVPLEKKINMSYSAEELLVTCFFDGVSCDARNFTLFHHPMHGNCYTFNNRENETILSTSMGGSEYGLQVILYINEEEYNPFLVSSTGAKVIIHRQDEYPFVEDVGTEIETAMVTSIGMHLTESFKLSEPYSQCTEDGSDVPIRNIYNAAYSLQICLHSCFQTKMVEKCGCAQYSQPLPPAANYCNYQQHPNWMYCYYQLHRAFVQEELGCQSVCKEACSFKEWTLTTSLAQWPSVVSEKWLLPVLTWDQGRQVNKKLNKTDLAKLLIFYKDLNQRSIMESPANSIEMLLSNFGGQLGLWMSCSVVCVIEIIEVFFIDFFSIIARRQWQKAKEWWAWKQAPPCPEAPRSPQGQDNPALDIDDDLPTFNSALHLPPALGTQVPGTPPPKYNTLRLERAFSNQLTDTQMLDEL
Test: Measurement of ENaC activation potency (two electrode voltage clamp current in ENaC-expressing oocyte)
Assay type: cell-based
How it was run: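 Xenopus oocytes were injected with human ENaC δ, β and γ cRNA, cultured 16–72 h, and voltage-clamped by two-electrode clamp at −30 mV below resting potential in ND96 (pH 7.6) perfusion. Compounds (0.1 nM–300 μM) were added in rising concentrations at 3-min intervals. MED was the first concentration raising current by ≥10% over pre-addition current.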

SMILES: O=C(NCCc1c[nH]c2ccc(O)cc12)c1c(O)cccc1O [Example 35, 2,6-dihydroxy-N-(2-(5-hydroxy-1H-indol-3-yl)ethyl)benzamide]
- concentration from which the ENaC activation current starts to increase (FIG. 3): 0.00001 g/dL
- concentration at which the ENaC activation current reaches the maximum current value (FIG. 3, almost constant up to 0.0080 g/dl): 0.0020 g/dL
- MED value (minimum effective dose) (lowest concentration increasing the current value by not less than 10% vs before addition): 0.1 to 0.3 µM
